Molecular target: S. pneumoniae Topoisomerase IV ATPase (ParE) (Streptococcus pneumoniae serotype 4, UniProt Q59961)
Experiment: S. pneumoniae Topoisomerase IV ATPase inhibition
Format: biochemical
Details: values marked * are an average of two or more data points, read-out: % Inh (13 μM) of S. pneumoniae Topoisomerase IV ATPase
Outline: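 ParE ATPase (1.25 nM) run with 160 μM ATP and 5 μg/ml sheared salmon sperm DNA in Tris pH 8.0, Mg2+, glycerol, DTT, Brij-35. Phosphate released read by malachite green/molybdate absorbance at 650 nm. IC50 from 10 compound concentrations; DMSO (2%) as 0% and EDTA (20 μM) as 100% inhibition.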

S. pneumoniae Topoisomerase IV ATPase (ParE), sequence (Q59961 whole entry): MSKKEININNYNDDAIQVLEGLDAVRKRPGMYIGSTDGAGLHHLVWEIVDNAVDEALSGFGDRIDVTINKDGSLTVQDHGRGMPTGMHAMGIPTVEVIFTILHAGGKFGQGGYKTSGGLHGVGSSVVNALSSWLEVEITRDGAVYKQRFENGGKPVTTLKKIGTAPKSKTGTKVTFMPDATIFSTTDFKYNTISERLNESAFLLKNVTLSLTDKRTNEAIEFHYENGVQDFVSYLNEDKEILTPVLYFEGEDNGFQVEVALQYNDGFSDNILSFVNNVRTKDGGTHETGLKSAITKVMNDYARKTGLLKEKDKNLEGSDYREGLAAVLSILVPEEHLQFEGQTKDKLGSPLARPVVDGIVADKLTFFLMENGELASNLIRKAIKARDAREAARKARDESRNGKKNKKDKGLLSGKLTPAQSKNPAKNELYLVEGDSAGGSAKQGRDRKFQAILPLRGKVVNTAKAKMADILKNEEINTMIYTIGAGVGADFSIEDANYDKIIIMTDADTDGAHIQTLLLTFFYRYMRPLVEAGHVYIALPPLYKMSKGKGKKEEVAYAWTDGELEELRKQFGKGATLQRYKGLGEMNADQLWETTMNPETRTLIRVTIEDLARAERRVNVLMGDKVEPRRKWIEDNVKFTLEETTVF

Question: How did the inhibition at 13 µM turn out when `COc1cc(Nc2ncc(-c3cncc(C(=O)O)c3)c(-n3ccc(C(F)(F)F)n3)n2)cc(OC)c1` [Example 635, 5-{2-[(3,5-Dimethoxyphenyl)amino]-4-[3-(trifluoromethyl)-1H-pyrazol-1-yl]pyrimidin-5-yl}pyridine-3-carboxylic acid] was run?
Answer: The inhibition at 13 µM was 100%.

Question: Which inhibition at 13 µM does the source give for `COc1cc(Nc2ncc(-c3cncc(C(=O)O)c3)c(-n3nc(C(F)(F)F)cc3C)n2)cc(OC)c1` [Example 636, 5-{2-[(3,5-dimethoxyphenyl)amino]-4-[5-methyl-3-(trifluoromethyl)-1H-pyrazol-1-yl]pyrimidin-5-yl}pyridin-3-carboxylic acid] here?
Answer: Its inhibition at 13 µM is 100%.

Question: Which inhibition at 13 µM does the source give for `Cc1cc(C)cc(Nc2ncc(-c3cncc(C(=O)O)c3)c(-n3ccc(C(F)(F)F)n3)n2)c1` [Example 637, 5-{2-[(3,5-dimethylphenyl)amino]-4-[3-(trifluoromethyl)-1H-pyrazol-1-yl]pyrimidin-5-yl}pyridine-3-carboxylic acid] here?
Answer: Its inhibition at 13 µM is 100%.

Question: For `Cc1cc(C)cc(Nc2ncc(-c3cncc(C(=O)O)c3)c(-n3nc(C(F)(F)F)cc3C)n2)c1` [Example 638, 5-{2-[(3,5-dimethylphenyl)amino]-4-[5-methyl-3-(trifluoromethyl)-1H-pyrazol-1-yl]pyrimidin-5-yl}pyridine-3-carboxylic acid], which inhibition at 13 µM is on record?
Answer: The inhibition at 13 µM was 100%.

Question: How did the inhibition at 13 µM turn out when `O=C(O)c1cncc(-c2cnc(Nc3cc(F)cc(F)c3)nc2-n2ccc(C(F)(F)F)n2)c1` [Example 639, 5-{2-[(3,5-difluorophenyl)amino]-4-[3-(trifluoromethyl)-1H-pyrazol-1-yl]pyrimidin-5-yl}pyridine-3-carboxylic acid] was run?
Answer: Its inhibition at 13 µM is 100%.

Question: With `Cc1cc(C(F)(F)F)nn1-c1nc(Nc2cc(F)cc(F)c2)ncc1-c1cncc(C(=O)O)c1` [Example 640, 5-{2-[(3,5-difluorophenyl)amino]-4-[5-methyl-3-(trifluoromethyl)-1H-pyrazol-1-yl]pyrimidin-5-yl}pyridine-3-carboxylic acid] as the compound, how does the inhibition at 13 µM read?
Answer: Its inhibition at 13 µM is 100%.

Question: For `O=C(O)c1cncc(-c2cnc(Nc3cccc(F)c3)nc2-n2ccc(C(F)(F)F)n2)c1` [Example 641, 5-{2-[(3-fluorophenyl)amino]-4-[3-(trifluoromethyl)-1H-pyrazol-1-yl]pyrimidin-5-yl}pyridine-3-carboxylic acid], which inhibition at 13 µM is on record?
Answer: The inhibition at 13 µM was 100%.

Question: With `Cc1cc(C(F)(F)F)nn1-c1nc(Nc2cccc(F)c2)ncc1-c1cncc(C(=O)O)c1` [Example 642, 5-{2-[(3-fluorophenyl)amino]-4-[5-methyl-3-(trifluoromethyl)-1H-pyrazol-1-yl]pyrimidin-5-yl}pyridine-3-carboxylic acid] as the compound, how does the inhibition at 13 µM read?
Answer: Its inhibition at 13 µM is 100%.

Question: Which inhibition at 13 µM does the source give for `CS(=O)(=O)c1cccc(Nc2ncc(-c3cncc(C(=O)O)c3)c(-n3ccc(C(F)(F)F)n3)n2)c1` [Example 643, 5-(2-{[3-(methylsulfonyl)phenyl]amino}-4-[3-(trifluoromethyl)-1H-pyrazol-1-yl]pyrimidin-5-yl)pyridine-3-carboxylic acid] here?
Answer: Its inhibition at 13 µM is 100%.

Question: How did the inhibition at 13 µM turn out when `Cc1cc(C(F)(F)F)nn1-c1nc(Nc2cccc(S(C)(=O)=O)c2)ncc1-c1cncc(C(=O)O)c1` [Example 644, 5-(2-{[3-(methylsulfonyl)phenyl]amino}-4-[5-methyl-3-(trifluoromethyl)-1H-pyrazol-1-yl]pyrimidin-5-yl)pyridine-3-carboxylic acid] was run?
Answer: Its inhibition at 13 µM is 84%.

Question: `COc1ncc(-c2cnc(Nc3cc(C)cc(C)c3)nc2-n2nc(C(F)(F)F)cc2C)cc1C(=O)O` [Example 646, 5-{2-[(3,5-dimethylphenyl)amino]-4-[5-methyl-3-(trifluoromethyl)-1H-pyrazol-1-yl]pyrimidin-5-yl}-2-methoxypyridine-3-carboxylic acid] was tested. Which inhibition at 13 µM did it give?
Answer: The inhibition at 13 µM was 100%.

Question: Which inhibition at 13 µM does the source give for `COc1ncc(-c2cnc(Nc3cc(C)cc(C)c3)nc2-n2ccc(C(F)(F)F)n2)cc1C(=O)O` [Example 648, 5-{2-[(3,5-dimethylphenyl)amino]-4-[3-(trifluoromethyl)-1H-pyrazol-1-yl]pyrimidin-5-yl}-2-methoxypyridine-3-carboxylic acid] here?
Answer: Its inhibition at 13 µM is 100%.

Question: For `COc1cc(Nc2ncc(-c3cccc(/C=C/C(=O)O)c3)c(-n3nc(C(F)(F)F)cc3C)n2)cc(S(C)(=O)=O)c1` [Example 653], which inhibition at 13 µM is on record?
Answer: The inhibition at 13 µM was 86%.

Question: Which inhibition at 13 µM does the source give for `O=C(O)/C=C/c1cccc(-c2cnc(Nc3ccc4c(c3)CCC4)nc2-n2ccc(C(F)(F)F)n2)c1` [Example 655, (2E)-3-(3-{2-(2,3-dihydro-1H-inden-5-ylamino)-4-[3-(trifluoromethyl)-1H-pyrazol-1-yl]pyrimidin-5-yl}phenyl)prop-2-enoic acid] here?
Answer: Its inhibition at 13 µM is 89%.

Question: `Cc1cc(C(F)(F)F)nn1-c1nc(Nc2ccc3c(c2)CCC3)ncc1-c1cccc(/C=C/C(=O)O)c1` [Example 656, (2E)-3-(3-{2-(2,3-dihydro-1H-inden-5-ylamino)-4-[5-methyl-3-(trifluoromethyl)-1H-pyrazol-1-yl]pyrimidin-5-yl}phenyl)prop-2-enoic acid] was tested. Which inhibition at 13 µM did it give?
Answer: Its inhibition at 13 µM is 78%.

Question: With `O=C(O)/C=C/c1cccc(-c2cnc(Nc3ccc4c(c3)OCO4)nc2-n2ccc(C(F)(F)F)n2)c1` [Example 657, (2E)-3-(3-{2-(1,3-benzodioxol-5-ylamino)-4-[3-(trifluoromethyl)-1H-pyrazol-1-yl]pyrimidin-5-yl}phenyl)prop-2-enoic acid] as the compound, how does the inhibition at 13 µM read?
Answer: Its inhibition at 13 µM is 100%.

Question: With `Cc1cc(C(F)(F)F)nn1-c1nc(Nc2ccc3c(c2)OCO3)ncc1-c1cccc(/C=C/C(=O)O)c1` [Example 658, (2E)-3-(3-{2-(1,3-benzodioxol-5-ylamino)-4-[5-methyl-3-(trifluoromethyl)-1H-pyrazol-1-yl]pyrimidin-5-yl}phenyl)prop-2-enoic acid] as the compound, how does the inhibition at 13 µM read?
Answer: The inhibition at 13 µM was 96%.

Question: For `COc1cc(Nc2ncc(-c3cccc(/C=C/C(=O)O)c3)c(-n3ccc(C(F)(F)F)n3)n2)cc(S(C)(=O)=O)c1` [Example 659, (2E)-3-[3-(2-{[3-methoxy-5-(methylsulfonyl)phenyl]amino}-4-[3-(trifluoromethyl)-1H-pyrazol-1-yl]pyrimidin-5-yl)phenyl]prop-2-enoic acid], which inhibition at 13 µM is on record?
Answer: Its inhibition at 13 µM is 100%.

Question: Which inhibition at 13 µM does the source give for `Cc1ccc(S(=O)(=O)n2ccc3cc(Nc4ncc(-c5cncc(C(=O)O)c5)c(-n5nc(C(F)(F)F)cc5C)n4)ccc32)cc1` [Example 667, 5-{2-({1-[(4-methylphenyl)sulfonyl]-1H-indol-5-yl}amino)-4-[5-methyl-3-(trifluoromethyl)-1H-pyrazol-1-yl]pyrimidin-5-yl}pyridine-3-carboxylic acid] here?
Answer: The inhibition at 13 µM was 56%.

Question: `O=C(O)c1cncc(-c2cnc(Nc3ccc4c(c3)CCC4)nc2-n2ccc(C(F)(F)F)n2)c1` [Example 668, 5-{2-(2,3-dihydro-1H-inden-5-ylamino)-4-[3-(trifluoromethyl)-1H-pyrazol-1-yl]pyrimidin-5-yl}pyridine-3-carboxylic acid] was tested. Which inhibition at 13 µM did it give?
Answer: Its inhibition at 13 µM is 85%.

Question: How did the inhibition at 13 µM turn out when `Cc1cc(C(F)(F)F)nn1-c1nc(Nc2ccc3c(c2)CCC3)ncc1-c1cncc(C(=O)O)c1` [Example 669, 5-{2-(2,3-dihydro-1H-inden-5-ylamino)-4-[5-methyl-3-(trifluoromethyl)-1H-pyrazol-1-yl]pyrimidin-5-yl}pyridine-3-carboxylic acid] was run?
Answer: Its inhibition at 13 µM is 68%.

Question: How did the inhibition at 13 µM turn out when `O=C(O)c1cncc(-c2cnc(Nc3ccc4c(c3)OCO4)nc2-n2ccc(C(F)(F)F)n2)c1` [Example 670, 5-{2-(1,3-benzodioxol-5-ylamino)-4-[3-(trifluoromethyl)-1H-pyrazol-1-yl]pyrimidin-5-yl}pyridine-3-carboxylic acid] was run?
Answer: Its inhibition at 13 µM is 100%.

Question: Which inhibition at 13 µM does the source give for `Cc1cc(C(F)(F)F)nn1-c1nc(Nc2ccc3c(c2)OCO3)ncc1-c1cncc(C(=O)O)c1` [Example 671, 5-{2-(1,3-benzodioxol-5-ylamino)-4-[5-methyl-3-(trifluoromethyl)-1H-pyrazol-1-yl]pyrimidin-5-yl}pyridine-3-carboxylic acid] here?
Answer: Its inhibition at 13 µM is 92%.

Question: With `COc1cc(Nc2ncc(-c3cncc(C(=O)O)c3)c(-n3ccc(C(F)(F)F)n3)n2)cc(S(C)(=O)=O)c1` [Example 672, 5-(2-{[3-methoxy-5-(methylsulfonyl)phenyl]amino}-4-[3-(trifluoromethyl)-1H-pyrazol-1-yl]pyrimidin-5-yl)pyridine-3-carboxylic acid] as the compound, how does the inhibition at 13 µM read?
Answer: Its inhibition at 13 µM is 100%.

Question: With `COc1cc(Nc2ncc(-c3cncc(C(=O)O)c3)c(-n3nc(C(F)(F)F)cc3C)n2)cc(S(C)(=O)=O)c1` [Example 673, 5-(2-{[3-methoxy-5-(methylsulfonyl)phenyl]amino}-4-[5-methyl-3-(trifluoromethyl)-1H-pyrazol-1-yl]pyrimidin-5-yl)pyridine-3-carboxylic acid] as the compound, how does the inhibition at 13 µM read?
Answer: The inhibition at 13 µM was 100%.

Question: With `COc1cc(Nc2ncc(-c3cnc(OC)c(C(=O)O)c3)c(-n3ccc(C(F)(F)F)n3)n2)cc(OC)c1` [Example 675, 5-{2-[(3,5-dimethoxyphenyl)amino]-4-[3-(trifluoromethyl)-1H-pyrazol-1-yl]pyrimidin-5-yl}-2-methoxypyridine-3-carboxylic acid] as the compound, how does the inhibition at 13 µM read?
Answer: The inhibition at 13 µM was 100%.

Question: How did the inhibition at 13 µM turn out when `COc1cc(Nc2ncc(-c3cnc(OC)c(C(=O)O)c3)c(-n3nc(C(F)(F)F)cc3C)n2)cc(OC)c1` [Example 677, 5-{2-[(3,5-dimethoxyphenyl)amino]-4-[5-methyl-3-(trifluoromethyl)-1H-pyrazol-1-yl]pyrimidin-5-yl}-2-methoxypyridine-3-carboxylic acid] was run?
Answer: The inhibition at 13 µM was 100%.

Question: `CNC(=O)c1cncc(-c2cnc(Nc3cc(OC)cc(OC)c3)nc2-n2ccc(C(F)(F)F)n2)c1` [Example 678, 5-{2-[(3,5-dimethoxyphenyl)amino]-4-[3-(trifluoromethyl)-1H-pyrazol-1-yl]pyrimidin-5-yl}-N-methylpyridine-3-carboxamide] was tested. Which inhibition at 13 µM did it give?
Answer: Its inhibition at 13 µM is 100%.

Question: Which inhibition at 13 µM does the source give for `CONC(=O)c1cncc(-c2cnc(Nc3cc(OC)cc(OC)c3)nc2-n2ccc(C(F)(F)F)n2)c1` [Example 680, 5-{2-[(3,5-dimethoxyphenyl)amino]-4-[3-(trifluoromethyl)-1H-pyrazol-1-yl]pyrimidin-5-yl}-N-methoxypyridine-3-carboxamide] here?
Answer: The inhibition at 13 µM was 100%.

Source: US20100137313A1 (ASTRAZENECA AB, priority 2008, published 2010)
